Reference: PubChem BioAssay AID1918996 (Molecular Pharmacology Branch, DTP, NCI, 2023)

Tested on: 349418-098-R-PDC complex spheroid growth
Assay: Anticancer human tumor 349418-098-R-PDC patient-derived lung adenocarcinoma cell line growth inhibition [AhR]
Conditions: for IC50: curve of first compound; for viability, T/C: stronger effect = lower value; active = viability on the fitted dose curve at most 10% of control; inactive = the rest
Method in brief: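 Agents were dosed in half-log steps down from roughly clinical Cmax, or from 10 microM where Cmax was unknown, alone and with AhR antagonists. Read-out: percent test/control growth of tumor spheroids containing HUVEC and MSC stromal cells.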

[1] = second compound 0.1 µM, first compound 0.0316 µM
[2] = second compound 0.1 µM, first compound 0.1 µM
[3] = second compound 0.1 µM, first compound 0.316 µM
[4] = second compound 0.1 µM, first compound 1 µM
[5] = second compound 0.1 µM, first compound 3.16 µM
[6] = second compound 0.1 µM, first compound 10 µM
[7] = second compound 0.316 µM, first compound 0.0316 µM
[8] = second compound 0.316 µM, first compound 0.1 µM
[9] = second compound 0.316 µM, first compound 0.316 µM
[10] = second compound 0.316 µM, first compound 1 µM
[11] = second compound 0.316 µM, first compound 3.16 µM
[12] = second compound 0.316 µM, first compound 10 µM
[13] = second compound 1 µM, first compound 0.0316 µM
[14] = second compound 1 µM, first compound 0.1 µM
[15] = second compound 1 µM, first compound 0.316 µM
[16] = second compound 1 µM, first compound 1 µM
[17] = second compound 1 µM, first compound 3.16 µM
[18] = second compound 1 µM, first compound 10 µM
[19] = second compound 3.16 µM, first compound 0.0316 µM
[20] = second compound 3.16 µM, first compound 0.1 µM
[21] = second compound 3.16 µM, first compound 0.316 µM
[22] = second compound 3.16 µM, first compound 1 µM
[23] = second compound 3.16 µM, first compound 3.16 µM
[24] = second compound 3.16 µM, first compound 10 µM
[25] = second compound 10 µM, first compound 0.0316 µM
[26] = second compound 10 µM, first compound 0.1 µM
[27] = second compound 10 µM, first compound 0.316 µM
[28] = second compound 10 µM, first compound 1 µM
[29] = second compound 10 µM, first compound 3.16 µM
[30] = second compound 10 µM, first compound 10 µM
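Note: spheroids exposed to agents for seven days before luminescence viability read.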
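Throughout, for viability, T/C: spheroids also contain HUVEC endothelial cells and human MSC stroma.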

COc1ccc([C@@H](O)c2cc(-c3ncnc4cc(N5CCOCC5)ccc34)c(F)cc2Cl)nn1 + Cc1cncc(-c2nc(NCCc3c[nH]c4ccccc34)c3ncn(C(C)C)c3n2)c1
4.01 µM: IC50 (second compound 0.1 µM)
active: viability, T/C [25] 0.93% | viability, T/C [26] 0.92% | viability, T/C [27] 1.03% | viability, T/C [28] 1.37% | viability, T/C [29] 1.91% | viability, T/C [30] 3.18%
3.97 µM: IC50 (second compound 0.316 µM)
< 0.0316 µM: IC50 (second compound 3.16 µM) | IC50 (second compound 10 µM)
inactive: viability, T/C [1] 100% | viability, T/C [2] 101% | viability, T/C [3] 92.5% | viability, T/C [4] 88.8% | viability, T/C [5] 58.1% | viability, T/C [6] 16.8% | viability, T/C [7] 103% | viability, T/C [8] 94.7% | viability, T/C [9] 89.9% | viability, T/C [10] 93.3% | viability, T/C [11] 58.8% | viability, T/C [12] 14.1% | viability, T/C [13] 81% | viability, T/C [14] 79.7% | viability, T/C [15] 80.5% | viability, T/C [16] 68.2% | viability, T/C [17] 57.9% | viability, T/C [18] 19.4% | viability, T/C [19] 16.5% | viability, T/C [20] 16.7% | viability, T/C [21] 12.7% | viability, T/C [22] 12.5% | viability, T/C [23] 11.9% | viability, T/C [24] 9.7%
3.84 µM: IC50 (second compound 1 µM)

CCc1c2c(nc3ccc(O)cc13)-c1cc3c(c(=O)n1C2)COC(=O)[C@]3(O)CC + Cc1cncc(-c2nc(NCCc3c[nH]c4ccccc34)c3ncn(C(C)C)c3n2)c1
< 0.000949 µM: IC50 (second compound 0.1 µM) | IC50 (second compound 0.316 µM) | IC50 (second compound 1 µM) | IC50 (second compound 3.16 µM) | IC50 (second compound 10 µM)
active: viability, T/C (second compound 0.1 µM, first compound 0.00949 µM) 6.34% | viability, T/C (second compound 0.1 µM, first compound 0.03 µM) 3.54% | viability, T/C (second compound 0.1 µM, first compound 0.0949 µM) 2.3% | viability, T/C (second compound 0.1 µM, first compound 0.3 µM) 1.59% | viability, T/C (second compound 0.316 µM, first compound 0.00949 µM) 5.66% | viability, T/C (second compound 0.316 µM, first compound 0.03 µM) 3.5% | viability, T/C (second compound 0.316 µM, first compound 0.0949 µM) 2.11% | viability, T/C (second compound 0.316 µM, first compound 0.3 µM) 1.51% | viability, T/C (second compound 1 µM, first compound 0.00949 µM) 5.54% | viability, T/C (second compound 1 µM, first compound 0.03 µM) 3.53% | viability, T/C (second compound 1 µM, first compound 0.0949 µM) 2.48% | viability, T/C (second compound 1 µM, first compound 0.3 µM) 1.41% | viability, T/C (second compound 3.16 µM, first compound 0.003 µM) 6.98% | viability, T/C (second compound 3.16 µM, first compound 0.00949 µM) 3.19% | viability, T/C (second compound 3.16 µM, first compound 0.03 µM) 2.37% | viability, T/C (second compound 3.16 µM, first compound 0.0949 µM) 1.61% | viability, T/C (second compound 3.16 µM, first compound 0.3 µM) 1.27% | viability, T/C (second compound 10 µM, first compound 0.000949 µM) 1.19% | viability, T/C (second compound 10 µM, first compound 0.003 µM) 1.44% | viability, T/C (second compound 10 µM, first compound 0.00949 µM) 0.76% | viability, T/C (second compound 10 µM, first compound 0.03 µM) 0.65% | viability, T/C (second compound 10 µM, first compound 0.0949 µM) 0.41% | viability, T/C (second compound 10 µM, first compound 0.3 µM) 0.29%
inactive: viability, T/C (second compound 0.1 µM, first compound 0.000949 µM) 49.5% | viability, T/C (second compound 0.1 µM, first compound 0.003 µM) 24.2% | viability, T/C (second compound 0.316 µM, first compound 0.000949 µM) 47.7% | viability, T/C (second compound 0.316 µM, first compound 0.003 µM) 16.8% | viability, T/C (second compound 1 µM, first compound 0.000949 µM) 41.9% | viability, T/C (second compound 1 µM, first compound 0.003 µM) 14.4% | viability, T/C (second compound 3.16 µM, first compound 0.000949 µM) 12.8%

Nc1ccccc1NC(=O)c1ccc(CNC(=O)OCc2cccnc2)cc1 + CC(CO)NC(=O)c1cc(-c2ccc(Cl)cc2)nn(-c2cnn(C)c2)c1=O
active: viability, T/C [12] 6.83% | viability, T/C [18] 7.01% | viability, T/C [24] 7.39% | viability, T/C [30] 5.36%
inactive: viability, T/C [1] 82.8% | viability, T/C [2] 110% | viability, T/C [3] 73.4% | viability, T/C [4] 45.7% | viability, T/C [5] 23.3% | viability, T/C [6] 7.92% | viability, T/C [7] 114% | viability, T/C [8] 98.5% | viability, T/C [9] 81.7% | viability, T/C [10] 51.4% | viability, T/C [11] 22.7% | viability, T/C [13] 104% | viability, T/C [14] 104% | viability, T/C [15] 80.9% | viability, T/C [16] 50.8% | viability, T/C [17] 23.9% | viability, T/C [19] 79.5% | viability, T/C [20] 104% | viability, T/C [21] 65.4% | viability, T/C [22] 52.9% | viability, T/C [23] 22.1% | viability, T/C [25] 54.1% | viability, T/C [26] 68.4% | viability, T/C [27] 50.7% | viability, T/C [28] 39.8% | viability, T/C [29] 18.8%
0.438 µM: IC50 (second compound 10 µM)
1.06 µM: IC50 (second compound 1 µM)
0.873 µM: IC50 (second compound 0.1 µM)
1 µM: IC50 (second compound 3.16 µM)
1.05 µM: IC50 (second compound 0.316 µM)
